Test results from PMC4965010 (PLoS ONE, 2016).
Read-outs that look alike come from different tables or passages of the source. Marks after values point to notes of the source that are not given here.

Biological target: T1, human FXIIIa (Homo sapiens, UniProt P00488)
T1 construct: purchased Haematologic Technologies (Essex Junction, VT)
T1 sequence (P00488 39-732 limits assumed): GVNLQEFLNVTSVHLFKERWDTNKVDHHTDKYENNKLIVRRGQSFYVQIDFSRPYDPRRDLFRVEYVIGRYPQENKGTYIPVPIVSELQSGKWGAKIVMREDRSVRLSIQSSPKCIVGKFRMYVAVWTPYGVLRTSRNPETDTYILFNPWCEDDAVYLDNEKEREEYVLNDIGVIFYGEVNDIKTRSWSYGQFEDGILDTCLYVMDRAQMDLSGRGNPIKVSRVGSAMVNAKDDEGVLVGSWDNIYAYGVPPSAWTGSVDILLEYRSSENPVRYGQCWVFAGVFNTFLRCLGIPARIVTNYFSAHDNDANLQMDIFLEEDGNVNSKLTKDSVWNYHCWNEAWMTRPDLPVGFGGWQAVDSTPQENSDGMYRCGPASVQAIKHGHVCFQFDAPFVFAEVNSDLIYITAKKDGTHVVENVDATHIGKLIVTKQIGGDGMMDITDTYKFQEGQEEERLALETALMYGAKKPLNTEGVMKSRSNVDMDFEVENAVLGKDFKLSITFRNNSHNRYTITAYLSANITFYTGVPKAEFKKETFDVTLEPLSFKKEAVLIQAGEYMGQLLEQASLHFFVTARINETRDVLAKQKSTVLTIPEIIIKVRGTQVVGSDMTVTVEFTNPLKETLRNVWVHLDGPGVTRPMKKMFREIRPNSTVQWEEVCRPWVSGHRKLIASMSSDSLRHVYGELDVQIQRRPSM
Assay: bisubstrate, fluorescence-based transglutamination assay (dansylcadaverine / N,N-dimethylcasein)
Assay type: biochemical
Settings: pH 8.0, 37°C; for inhibition at 20 µM: pH 8, 20 μM
Description: The library of sulfated molecules was screened for inhibition of human FXIIIa using a modified bisubstrate, fluorescence-based transglutamination assay, as described earlier. Dansylcadaverine and N,N-dimethyl-casein were used as two substrates, which upon FXIIIa-dependence conjugation show a marked increase in fluorescence at 550 nm (λEX = 360 nm). Initial screening was performed at 200 μM NSGM concentration (1–15) or 50–1110 μM GAG concentration (16–22) (Table 1). At these levels, none of GAGs inhibited FXIIIa by more than 5%. […] Trimeric scaffolds 13 and 14 inhibited FXIIIa by 94% and 29%, respectively. […] To identify promising NSGMs from these, screening was performed at a lower concentration (20 μM).
Direct inhibition of human FXIIIa was measured spectrofluorometrically by a bisubstrate, fluorescence-based transglutamination assay at pH 8.0 and 37°C on a microplate reader (FlexStation III, Molecular Devices) (modified from earlier reports). Briefly, to each well of a 96-well microplate containing 80 μL of 50 mM TrisHCl buffer, pH 8.0, containing 100 mM NaCl, 10 mM CaCl2, and 2 mg/mL dimethylcasein was added 5 μL potential NSGM-based inhibitor (0–20 mM aqueous solution) or vehicle, 5 μL DTT (20 mM), and 5 μL enzyme (0.12–1.2 μM) at 37°C. After 5 min incubation, 5 μL of dansylcadaverine (2.5 mM) was rapidly added and the residual enzyme activity was measured from the initial rate of increase in RFU (λEM = 550 nm, λEX = 360 nm). Relative residual enzyme activity (Y) as a function of the concentration of sulfated molecule was fitted using logistic Eq 1 to obtain the potency (IC50), efficacy (ΔY) and Hill slope (HS) of inhibition. In this equation, YM and Yo are the maximal and minimal values of Y.

[1] = pH 8, 200 μM, read-out: FXIIIa inhibition at 200 μM (%)

| Structure (SMILES) | inhibition at 200 µM [1] | inhibition at 20 µM | further results |
| --- | --- | --- | --- |
| NC(=O)CI [IAA, Iodoacetamide, reference compound] | – | – | HS, Hill slope (FXIIIa): 0.8 ± 0.2; IC50: 2.9 ± 0.4 µM; ΔY, efficacy (FXIIIa): 105 ± 10%; ΔY, efficacy (FXIIIa) (listed as Iodoacetamide): ~ 100% |
| O=c1c(OS(=O)(=O)O)c(-c2ccc(OS(=O)(=O)O)c(OS(=O)(=O)O)c2)oc2cc(OS(=O)(=O)O)cc(OS(=O)(=O)O)c12 [Molecule 1] | – | – | FXIIIa inhibition at 200 μM (%): 31 ± 4^b %; inhibition at 200 µM (pH 8, read-out: FXIIIa inhibition at 200 μM (%), 200 μM): ~30% |
| O=S(=O)(O)Oc1cc2c(c(OS(=O)(=O)O)c1)C[C@H](OS(=O)(=O)O)[C@@H](c1ccc(OS(=O)(=O)O)c(OS(=O)(=O)O)c1)O2 [Molecule 2] | ~30% | – | FXIIIa inhibition at 200 μM (%): 32 ± 6% |
| O=c1c(OS(=O)(=O)O)c(-c2ccc(OS(=O)(=O)O)c(OC/C=C/COc3cc(-c4oc5cc(OS(=O)(=O)O)cc(O)c5c(=O)c4OS(=O)(=O)O)ccc3OS(=O)(=O)O)c2)oc2cc(OS(=O)(=O)O)cc(O)c12 [Molecule 8] | 84 ± 5% | – | – |
| CO[C@H]1O[C@H](COS(=O)(=O)O)[C@@H](O[C@@H]2O[C@@H](C(=O)O)[C@@H](O[C@H]3O[C@H](COS(=O)(=O)O)[C@@H](O[C@@H]4O[C@H](C(=O)O)[C@@H](O[C@H]5O[C@H](COS(=O)(=O)O)[C@@H](O)[C@H](O)[C@H]5NS(=O)(=O)O)[C@H](O)[C@H]4O)[C@H](OS(=O)(=O)O)[C@H]3NS(=O)(=O)O)[C@H](O)[C@H]2OS(=O)(=O)O)[C@H](O)[C@H]1NS(=O)(=O)O [Molecule 18, fondaparinux, reference compound] | – | – | inhibition at 360 µM (pH 8, at 360 μM): ~0% |
| O=S(=O)(O)OC[C@H]1O[C@@](COS(=O)(=O)O)(O[C@H]2O[C@H](COS(=O)(=O)O)[C@@H](OS(=O)(=O)O)[C@H](OS(=O)(=O)O)[C@H]2OS(=O)(=O)O)[C@@H](OS(=O)(=O)O)[C@@H]1OS(=O)(=O)O [Molecule 22, sucrose octasulfate, reference compound] | ~17% | – | – |

More lines, main results first:

| inhibition at 200 µM [1] | inhibition at 20 µM | Structure (SMILES) | further results |
| --- | --- | --- | --- |
| 65 ± 3% | 27 to 40% | O=c1c(OS(=O)(=O)O)c(-c2ccc(OS(=O)(=O)O)c(OS(=O)(=O)O)c2)oc2cc(OS(=O)(=O)O)cc(OCCOc3cc(OS(=O)(=O)O)cc4oc(-c5ccc(OS(=O)(=O)O)c(OS(=O)(=O)O)c5)c(OS(=O)(=O)O)c(=O)c34)c12 [Molecule 3] | FXIIIa inhibition at 20 μM (%) (20 μM): 26 ± 2% |
| 67 ± 5% | – | O=c1c(OS(=O)(=O)O)c(-c2ccc(OS(=O)(=O)O)c(OS(=O)(=O)O)c2)oc2cc(OS(=O)(=O)O)cc(OCCCOc3cc(OS(=O)(=O)O)cc4oc(-c5ccc(OS(=O)(=O)O)c(OS(=O)(=O)O)c5)c(OS(=O)(=O)O)c(=O)c34)c12 [Molecule 4] | – |
| 89 ± 5% | 40 ± 3% | O=c1c(OS(=O)(=O)O)c(-c2ccc(OS(=O)(=O)O)c(OS(=O)(=O)O)c2)oc2cc(OS(=O)(=O)O)cc(OCCCCOc3cc(OS(=O)(=O)O)cc4oc(-c5ccc(OS(=O)(=O)O)c(OS(=O)(=O)O)c5)c(OS(=O)(=O)O)c(=O)c34)c12 [Molecule 6] | – |
| 58 ± 4% | 31 ± 3% | O=c1c(OS(=O)(=O)O)c(-c2ccc(OS(=O)(=O)O)c(OS(=O)(=O)O)c2)oc2cc(OS(=O)(=O)O)cc(OC/C=C/COc3cc(OS(=O)(=O)O)cc4oc(-c5ccc(OS(=O)(=O)O)c(OS(=O)(=O)O)c5)c(OS(=O)(=O)O)c(=O)c34)c12 [Molecule 7] | – |
